# Columns and labels:
# [1] = tested on: patients with myelofibrosis (MF); experiment: Phase 2 sustained-release clinical trial, haematology and adverse events; settings: human, in vivo, 16 weeks
# Procedure: A Phase 2 clinical trial was carried out in patients with myelofibrosis (MF). A total of 41 subjects were enrolled, and spleen volume and total symptom scores were obtained at baseline. Tablets of sustained-release formulation SR-2 (see Example 1) were administered to fasted patients. All patients were treated with 25 mg once daily doses for 8 weeks. After 8 weeks, depending upon the clinical response, the investigator was allowed to (a) maintain the same dose of SR-2, (b) increase the dose to 50 mg once daily, (c) increase the dose to alternating doses of 25 mg and 50 mg, dosed once daily, or (d) switch to treatment with the immediate release formulation.
# Data relating to mean platelet count and mean hemoglobin levels (Hgb) is presented below in Table 3 together with comparative data from the COMFORT-I study. […] Data is shown as mean±SD.
# Data for adverse events relating to anemia, thrombocytopenia, neutropenia, and all Grade 3 or higher adverse events are compared for the sustained-release and COMFORT-I (immediate-release) studies (see Example 3 and Comparative Example A for descriptions of the studies) in Table 6a. Adverse events are graded according to CTCAE criteria which can be found online at ctep.cancer.gov/protocolDevelopment/electronic_applications/ctc.htm or evs.nci.nih.gov/ftp1/CTCAE/CTCAE_4.03_2010-06-14_QuickReference_5×7.pdf. A Grade 3 adverse event generally corresponds to a reaction that is severe or medically significant, but not immediately life-threatening where hospitalization or prolongation of hospitalization is indicated and where the reaction is disabling to the extent of limiting self care. Higher Grades are 4 (life-threatening requiring urgent intervention) and 5 (death). For anemia, Grade 3 corresponds to Hgb<8.0 g/dL; <4.9 mmol/L; <80 g/L, where a transfusion is indicated. For thrombocytopenia (decreased platelet count), Grade 3 corresponds to <50,000-25,000/mm^3; <50.0-25.0×10^9/L. The sustained-release data was evaluated for patients over the course of 16 weeks. Mean duration of exposure to ruxolitinib in the COMFORT-I was approximately 242 days. Typically, the majority of hematologic adverse events occur within the first few months of therapy as observed in the COMFORT-I study.
# The sustained-release data was evaluated for patients over the course of 16 weeks. Mean duration of exposure to ruxolitinib in the COMFORT-I study was approximately 242 days. The vast majority of hematologic adverse events occur within the first few months of therapy as observed in the COMFORT-I study. […] Additionally, the severity of the adverse events is lesser in the sustained-release study.
# [2] = Open-label study of immediate-release ruxolitinib phosphate tablets in MF patients, pharmacokinetics; type: in vivo, human; settings: dose from 10 mg to 100 mg
# Procedure: This was an open-label study exploring the safety, tolerability, and efficacy of ruxolitinib, administered orally to patients with primary myelofibrosis (PMF) and post polycythemia vera/essential thrombocythemia myelofibrosis (Post-PV/ET MF). The study was comprised of 3 parts: Part 1-dose escalation and expansion, bid dosing, Part 2-alternative dosing schedules (A, B and C), and Part 3-three independent patient groups (Group I, II and III). Eight dose regimens were evaluated in 3 parts. The Part 1 evaluated two dose levels of 25 mg bid and 50 mg bid, Part 2 studied five dose regimens of 10 mg bid, 25 mg bid, 25 mg qd, 50 mg qd and 100 mg qd and Part 3 assessed six dose regimens of 10 mg bid, 15 mg bid, 25 mg bid, 50 mg qd, 100 mg qd and 200 mg qd. A total of 154 subjects were enrolled; 32 subjects enrolled in Part 1, 29 subjects in Part 2 and 93 subjects in Part 3. See Table 4b (qd=once per day; bid=twice per day).
# In Part 1, the pharmacokinetic blood samples were collected at pre-dose and 0.5, 1, 1.5, 2, 4, 6 and 9 hours post-dose on Days 1 and 15 of Cycle 1 and at pre-dose on Day 1 of Cycles 2 and 3, using lavender top (K3EDTA) Vacutainer® tubes. […]
# Plasma samples were shipped to Incyte Corporation and assayed by a validated, GLP, LC/MS/MS method with a linear range of 1 to 1000 nM and a limit of quantification of 1 nM. […]
# [3] = tested on: patients with intermediate-2 or high risk myelofibrosis; settings: cited from earlier work
# [4] = cited from earlier work
# [5] = tested on: patients with intermediate-2 or high risk myelofibrosis; settings: cited from earlier work; remark: listed apart in the source
# [6] = tested on: Myelofibrosis patients; settings: COMFORT-II, 48 weeks (primary end point); cited from earlier work
# [7] = COMFORT I, immediate release, N = 155, maximum severity
# [8] = COMFORT I, immediate release, N = 155, treatment-related, maximum severity
# [9] = COMFORT I, immediate release, N = 155, treatment-related
# [10] = COMFORT I, immediate release, N = 155
# [11] = COMFORT I, mean exposure approximately 242 days
# [12] = COMFORT-I Study (active), Week 12, mean total daily dose 30.4 mg, mean ± SD
# [13] = COMFORT I immediate-release, n 129
# [14] = COMFORT I immediate-release, n 139
# [15] = COMFORT I immediate-release, n 140
# [16] = COMFORT I immediate-release, n 148
smiles,measurement,setting,value
"N#CC[C@H](C1CCCC1)n1cc(-c2ncnc3[nH]ccc23)cn1 [Ruxolitinib, (3R)-3-cyclopentyl-3-[4-(7H-pyrrolo[2,3-d]pyrimidin-4-yl)pyrazol-1-yl]propanenitrile]","% of Subjects With Any Adverse Events, Any severity",[1],(78.0) %
same,"% of Subjects with Anaemia, Any severity",[1],(4.9) %
same,"% of Subjects with Blood and lymphatic system disorders, Any severity",[1],(19.5) %
same,"% of Subjects with Thrombocytopenia, Any severity",[1],(14.6) %
same,"Number of Subjects With Any Adverse Events, Any severity",[1],32
same,"Number of Subjects With Any Adverse Events, LT (life threatening)",[1],0
same,"Number of Subjects With Any Adverse Events, Mi (mild)",[1],16
same,"Number of Subjects With Any Adverse Events, Mo (moderate)",[1],9
same,"Number of Subjects With Any Adverse Events, Se (severe)",[1],7
same,"Number of Subjects with Anaemia, Any severity",[1],2
same,"Number of Subjects with Anaemia, LT (life threatening)",[1],0
same,"Number of Subjects with Anaemia, Mi (mild)",[1],0
same,"Number of Subjects with Anaemia, Mo (moderate)",[1],2
same,"Number of Subjects with Anaemia, Se (severe)",[1],0
same,"Number of Subjects with Blood and lymphatic system disorders, Any severity",[1],8
same,"Number of Subjects with Blood and lymphatic system disorders, LT (life threatening)",[1],0
same,"Number of Subjects with Blood and lymphatic system disorders, Mi (mild)",[1],3
same,"Number of Subjects with Blood and lymphatic system disorders, Mo (moderate)",[1],4
same,"Number of Subjects with Blood and lymphatic system disorders, Se (severe)",[1],1
same,"Number of Subjects with Thrombocytopenia, Any severity",[1],6
same,"Number of Subjects with Thrombocytopenia, LT (life threatening)",[1],0
same,"Number of Subjects with Thrombocytopenia, Mi (mild)",[1],3
same,"Number of Subjects with Thrombocytopenia, Mo (moderate)",[1],2
same,"Number of Subjects with Thrombocytopenia, Se (severe)",[1],1
same,dose proportionality of mean Cmax and AUC,[2],increased approximately linearly proportional to dose
same,"Number of Subjects With Any Adverse Events, FT (fatal)",[3]; [7],9
same,"Number of Subjects With Any Adverse Events, LT (life threatening)",[3]; [7],9
same,"Number of Subjects With Any Adverse Events, Mi (mild)",[3]; [7],20
same,"Number of Subjects With Any Adverse Events, Mo (moderate)",[3]; [7],58
same,"Number of Subjects With Any Adverse Events, Se (severe)",[3]; [7],55
same,"Number of Subjects with Anaemia, FT (fatal)",[3]; [8],0
same,"Number of Subjects with Anaemia, LT (life threatening)",[3]; [8],8
same,"Number of Subjects with Anaemia, Mi (mild)",[3]; [8],4
same,"Number of Subjects with Anaemia, Mo (moderate)",[3]; [8],20
same,"Number of Subjects with Anaemia, Se (severe)",[3]; [8],16
same,"Number of Subjects with Blood and lymphatic system disorders, FT (fatal)",[3]; [8],0
same,"Number of Subjects with Blood and lymphatic system disorders, LT (life threatening)",[3]; [8],10
same,"Number of Subjects with Blood and lymphatic system disorders, Mi (mild)",[3]; [8],20
same,"Number of Subjects with Blood and lymphatic system disorders, Mo (moderate)",[3]; [8],28
same,"Number of Subjects with Blood and lymphatic system disorders, Se (severe)",[3]; [8],27
same,"Number of Subjects with Thrombocytopenia, FT (fatal)",[3]; [8],0
same,"Number of Subjects with Thrombocytopenia, LT (life threatening)",[3]; [8],2
same,"Number of Subjects with Thrombocytopenia, Mi (mild)",[3]; [8],21
same,"Number of Subjects with Thrombocytopenia, Mo (moderate)",[3]; [8],19
same,"Number of Subjects with Thrombocytopenia, Se (severe)",[3]; [8],11
same,"% of Subjects with Anaemia, Any severity",[3]; [9],31.0%
same,"% of Subjects with Blood and lymphatic system disorders, Any severity",[3]; [9],54.8%
same,"% of Subjects with Thrombocytopenia, Any severity",[3]; [9],34.2%
same,"Number of Subjects with Anaemia, Any severity",[3]; [9],48
same,"Number of Subjects with Blood and lymphatic system disorders, Any severity",[3]; [9],85
same,"Number of Subjects with Thrombocytopenia, Any severity",[3]; [9],53
same,"% of Subjects With Any Adverse Events, Any severity",[3]; [10],97.4%
same,"Number of Subjects With Any Adverse Events, Any severity",[3]; [10],151
same,Percent of Patients with All ≥ Grade 3 Adverse Events,[3]; [11],47.1%
same,Percent of Patients with Grade 3 or Higher Anemia,[3]; [11],15.5%
same,Percent of Patients with Grade 3 or Higher Neutropenia,[3]; [11],1.3%
same,Percent of Patients with Grade 3 or Higher Thrombocytopenia,[3]; [11],8.4%
same,Mean change from baseline Hgb,[3]; [12],-13.2 ± 15.5 g/L
same,Mean change from baseline platelet count,[3]; [12],−131 ± 143 ×10^9/L
same,half-life,"[4]; human, immediate-release, Shi et al.",about 3 hours
same,Bioavailability,[4]; oral,70-80%
same,"Total Symptom Score, Percent Change from Baseline To Week 24, Max",[5]; [13],108.3
same,"Total Symptom Score, Percent Change from Baseline To Week 24, Mean",[5]; [13],−46.1
same,"Total Symptom Score, Percent Change from Baseline To Week 24, Median",[5]; [13],−56.2
same,"Total Symptom Score, Percent Change from Baseline To Week 24, Min",[5]; [13],−100.0
same,"Spleen Volume, Percent Change from Baseline To Week 24, Max",[5]; [14],25.1%
same,"Spleen Volume, Percent Change from Baseline To Week 24, Mean",[5]; [14],−31.6%
same,"Spleen Volume, Percent Change from Baseline To Week 24, Median",[5]; [14],−33.0%
same,"Spleen Volume, Percent Change from Baseline To Week 24, Min",[5]; [14],−75.9%
same,"Total Symptom Score, Percent Change from Baseline To Week 16, Max",[5]; [15],292.5
same,"Total Symptom Score, Percent Change from Baseline To Week 16, Mean",[5]; [15],−40.5
same,"Total Symptom Score, Percent Change from Baseline To Week 16, Median",[5]; [15],−51.1
same,"Total Symptom Score, Percent Change from Baseline To Week 16, Min",[5]; [15],−100.0
same,"Spleen Volume, Percent Change from Baseline To Week 12, Max",[5]; [16],3.8%
same,"Spleen Volume, Percent Change from Baseline To Week 12, Mean",[5]; [16],−32.0%
same,"Spleen Volume, Percent Change from Baseline To Week 12, Median",[5]; [16],−31.7%
same,"Spleen Volume, Percent Change from Baseline To Week 12, Min",[5]; [16],−74.4%
same,proportion of patients with a reduction of 50% or more in the total symptom score,"[5]; COMFORT-I, baseline to week 24",45.9%
same,proportion of patients with a reduction of 35% or more in spleen volume,"[5]; COMFORT-I, week 24 (primary end point)",41.9%
same,patients with at least a 35% reduction in spleen volume from baseline,[6],28%

# Reference: patent publication US11576865B2, “Sustained-release dosage forms of ruxolitinib” (Incyte Corporation, priority 2012, dated 2023)
